Experimental data reported in US9878986B2, “Compounds for selective histone deacetylase inhibitors, and pharmaceutical composition comprising the same” (CHONG KUN DANG PHARMACEUTICAL CORP., priority 2013, dated 2018).

What was measured:
[1] = tested on: collagen-induced arthritis models; experiment: Collagen-induced arthritis models; assay type: in vivo, DBA/1J mice; settings: 30 mg/kg twice a day
Method: An emulsion was prepared by mixing bovine collagen type II (Chondrex) and complete Freund's adjuvant (Chondrex) at a ratio of 1:1 until the […] using a 1 ml pipette. Each 100 μL of emulsion was intradermally injected into the tail of DBA/1J mice for the first immunization. After 21 days, an emulsion was prepared by mixing bovine collagen type II and incomplete Freund's adjuvant (Chondrex) at a ratio of 1:1 by the same method as above. Each of 100 μL of emulsion was intradermally injected into the upper part of the tail of DBA/1J mice for the second boosting immunization. After the second boosting immunization, the mice were grouped according to body weight, the test drug was administered to each group, and the effects of the test drugs were measured by measuring the clinical score and the body weight. The clinical scores were assigned from 0 to 4, and the total clinical score was determined by evaluating the feet of each mouse and summing up the scores (normal: 0, most severe edema: 16). That is, the efficacy in the arthritis models was evaluated with the severity of edema of the joint, and a higher score was assigned to more severe edema.

HDAC 6 = molecular target: T1, HDAC 6 (Homo sapiens, UniProt Q9UBN7); experiment: Test of HDAC activities, HDAC6 (fluorimetric); assay type: biochemical; set-up: purchased Calbiochem 382180; settings: samples at 0.1, 1, 10, 100, 1000 nM; 37° C. 60 minutes; fluorescence Ex 390, Em 460; read-out: HDAC inhibitory activities, HDAC6
T1 sequence (Q9UBN7 1-1215): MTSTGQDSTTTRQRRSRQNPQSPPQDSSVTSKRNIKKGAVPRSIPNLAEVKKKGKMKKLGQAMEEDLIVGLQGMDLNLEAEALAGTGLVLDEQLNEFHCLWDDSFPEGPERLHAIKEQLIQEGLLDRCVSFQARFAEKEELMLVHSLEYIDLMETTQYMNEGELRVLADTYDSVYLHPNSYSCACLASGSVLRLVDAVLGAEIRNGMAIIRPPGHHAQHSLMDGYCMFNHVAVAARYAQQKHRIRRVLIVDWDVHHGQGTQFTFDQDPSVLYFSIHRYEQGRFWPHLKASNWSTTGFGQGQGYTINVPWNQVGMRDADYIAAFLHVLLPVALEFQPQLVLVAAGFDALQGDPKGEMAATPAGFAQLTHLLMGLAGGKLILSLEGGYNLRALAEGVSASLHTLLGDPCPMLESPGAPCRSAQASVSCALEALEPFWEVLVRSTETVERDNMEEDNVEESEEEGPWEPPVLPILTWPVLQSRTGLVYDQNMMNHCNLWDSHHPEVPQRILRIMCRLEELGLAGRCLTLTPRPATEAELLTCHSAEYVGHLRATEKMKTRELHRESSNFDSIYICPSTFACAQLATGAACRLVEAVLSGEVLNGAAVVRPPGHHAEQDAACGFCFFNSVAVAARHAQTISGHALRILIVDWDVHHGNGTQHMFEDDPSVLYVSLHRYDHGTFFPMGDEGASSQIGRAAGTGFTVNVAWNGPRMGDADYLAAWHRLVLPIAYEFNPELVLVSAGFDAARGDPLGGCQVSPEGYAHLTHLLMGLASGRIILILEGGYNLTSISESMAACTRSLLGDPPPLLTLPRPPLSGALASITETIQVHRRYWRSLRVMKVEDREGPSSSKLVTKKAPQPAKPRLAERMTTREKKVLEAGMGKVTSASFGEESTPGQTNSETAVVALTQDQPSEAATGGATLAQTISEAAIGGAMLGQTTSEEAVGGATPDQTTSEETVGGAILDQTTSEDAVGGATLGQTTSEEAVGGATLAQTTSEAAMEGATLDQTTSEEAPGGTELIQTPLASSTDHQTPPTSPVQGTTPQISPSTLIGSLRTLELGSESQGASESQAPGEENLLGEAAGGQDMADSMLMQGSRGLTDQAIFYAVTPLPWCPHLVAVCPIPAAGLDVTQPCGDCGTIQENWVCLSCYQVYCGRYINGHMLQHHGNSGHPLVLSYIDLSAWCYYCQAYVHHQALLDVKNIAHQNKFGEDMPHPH
Method in brief: (§1)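 HDAC1 tested at 100, 1000 and 10000 nM; recombinant human HDAC6 at 0.1, 1, 10, 100 and 1000 nM. Reaction 60 min at 37° C, then developer for 30 min at 37° C; fluorescence read at Ex 390/Em 460.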

colitis models = experiment: Colitis models (dextran sulfate sodium); assay type: in vivo, C57BL/6J mice; settings: intraperitoneally twice a day after 8 days from supply of DSS; disease-induced models lost to 17.5 to 18 g
Method: 3.0% dextran sulfate sodium (DSS: MP biomedicals) was dissolved in deionized water and supplied to 9-week-old C57BL/6J mice for 5 to 7 days and then water was normally supplied to the mice to induce colitis in animal models. The experimental animals were classified into a solvent control group and each group treated with Compound 254 and Compound 255 as test materials based on the body weight of the experimental animals. The test material was intraperitoneally injected twice a day after 8 days from the supply of DSS. The evaluation of the efficacy in colitis models was made by determining the degree to which the weight, lost due to the disease, was recovered to normal level, and the results are shown in FIG. 6.

HDAC1 = HDAC1 (Homo sapiens, UniProt Q13547); experiment: Test of HDAC activities, HDAC1 Fluorimetric Drug Discovery Assay Kit; assay type: biochemical; set-up: purchased Enzolifesciences BML-AK511; settings: samples at 100, 1000, 10000 nM; 37° C. 60 minutes; fluorescence Ex 390, Em 460; read-out: HDAC inhibitory activities, HDAC1
HDAC1, sequence (Q13547 whole entry): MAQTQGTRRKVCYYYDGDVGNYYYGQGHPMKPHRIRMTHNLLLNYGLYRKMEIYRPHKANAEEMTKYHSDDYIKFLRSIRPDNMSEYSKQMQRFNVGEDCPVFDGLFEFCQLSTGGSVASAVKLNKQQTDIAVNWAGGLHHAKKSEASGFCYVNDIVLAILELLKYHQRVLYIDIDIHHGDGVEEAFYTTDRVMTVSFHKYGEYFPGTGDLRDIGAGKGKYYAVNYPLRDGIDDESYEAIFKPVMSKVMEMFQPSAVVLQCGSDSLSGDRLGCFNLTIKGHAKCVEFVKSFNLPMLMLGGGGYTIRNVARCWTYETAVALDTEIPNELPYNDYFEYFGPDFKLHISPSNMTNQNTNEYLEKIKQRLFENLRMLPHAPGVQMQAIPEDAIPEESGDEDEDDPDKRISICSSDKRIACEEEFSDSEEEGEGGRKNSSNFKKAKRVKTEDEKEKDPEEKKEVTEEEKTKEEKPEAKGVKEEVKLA
Method in brief: as §1

Cn1ncc2ccc(-c3cccc(N(Cc4ccc(C(=O)NO)cc4)C(=O)N4CCOCC4)c3)cc21 [Compound 254, N-(4-(hydroxycarbamoyl)benzyl)-N-(3-(1-methyl-1H-indazol-6-yl)phenyl)morpholine-4-carboxamide]
arthritis symptoms improved by ([1]; versus vehicle group): more than 40%
clinical score ([1]; score 0 to 16, vehicle group 11.6): 6.4
IC50 (HDAC 6): 0.002 µM
weight recovered to (colitis models): 18.5 to 19.0 g
IC50 (HDAC1): 0.173 µM
